Measured values: PubChem BioAssay AID248 (DTP/NCI, 2004)
Values joined by “and” are separate entries in the source; they are usually repeats but may differ in a detail not shown here. Identical values can stand only once. Toxic doses and inconclusive results are not listed. Cut-off read from the data, not from the text of the source: active = T/C of 150% or more; inactive = T/C below 125%.

Tested on: L1210 leukemia ip in BDF1 mice, survival T/C
Assay: NCI In Vivo Anticancer Drug Screen. Data for tumor model L1210 Leukemia (intraperitoneal) in B6D2F1 (BDF1) mice
Conditions: endpoint: mean survival time, higher = longer survival
Method in brief: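 Antitumor effect is assessed in tumor-bearing animals. Survival in the compound arm is compared with a vehicle-dosed control arm and expressed as their quotient.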

[1] = dose: 100.0 mg/kg/injection, schedule: Q04DX003 (ip), vehicle: saline with Tween-80
[2] = dose: 200.0 mg/kg/injection, schedule: Q04DX003 (ip), vehicle: saline with Tween-80
[3] = dose: 400.0 mg/kg/injection, schedule: Q04DX003 (ip), vehicle: saline with Tween-80
[4] = dose: 50.0 mg/kg/injection, schedule: Q01DX001 (ip), vehicle: saline
[5] = dose: 100.0 mg/kg/injection, schedule: Q01DX001 (ip), vehicle: saline
[6] = dose: 200.0 mg/kg/injection, schedule: Q01DX001 (ip), vehicle: saline
[7] = dose: 400.0 mg/kg/injection, schedule: Q01DX001 (ip), vehicle: saline
[8] = dose: 100.0 mg/kg/injection, schedule: Q01DX001 (ip), vehicle: carboxymethylcellulose (CMC)
[9] = dose: 200.0 mg/kg/injection, schedule: Q01DX001 (ip), vehicle: carboxymethylcellulose (CMC)
[10] = dose: 400.0 mg/kg/injection, schedule: Q01DX001 (ip), vehicle: carboxymethylcellulose (CMC)
[11] = dose: 100.0 mg/kg/injection, schedule: Q01DX009 (ip), vehicle: saline
[12] = dose: 100.0 mg/kg/injection, schedule: Q01DX009 (ip), vehicle: Klucel (hydroxypropylcellulose) (HPC)
[13] = dose: 200.0 mg/kg/injection, schedule: Q01DX009 (ip), vehicle: Klucel (hydroxypropylcellulose) (HPC)
[14] = dose: 100.0 mg/kg/injection, schedule: Q01DX009 (ip), vehicle: saline with Tween-80
[15] = dose: 200.0 mg/kg/injection, schedule: Q01DX009 (ip), vehicle: saline with Tween-80
[16] = dose: 100.0 mg/kg/injection, schedule: Q04DX003 (ip), vehicle: Klucel (hydroxypropylcellulose) (HPC)
[17] = dose: 200.0 mg/kg/injection, schedule: Q04DX003 (ip), vehicle: Klucel (hydroxypropylcellulose) (HPC)
[18] = dose: 400.0 mg/kg/injection, schedule: Q04DX003 (ip), vehicle: Klucel (hydroxypropylcellulose) (HPC)
[19] = dose: 25.0 mg/kg/injection, schedule: Q01DX009 (ip), vehicle: saline
[20] = dose: 50.0 mg/kg/injection, schedule: Q01DX009 (ip), vehicle: saline
[21] = dose: 100.0 mg/kg/injection, schedule: Q01DX001 (ip), vehicle: Klucel (hydroxypropylcellulose) (HPC)
[22] = dose: 200.0 mg/kg/injection, schedule: Q01DX001 (ip), vehicle: Klucel (hydroxypropylcellulose) (HPC)
[23] = dose: 400.0 mg/kg/injection, schedule: Q01DX001 (ip), vehicle: Klucel (hydroxypropylcellulose) (HPC)

Measured: T/C

CC1CCC(NC2=NCCO2)C1 (stereo not given)
inactive: [1] 96 % of control | [2] 93 % of control | [3] 93 % of control

Cc1cc(C)c(C)c(C(C)O)c1C (stereo not given)
inactive: [1] 96 % of control | [2] 94 % of control

O=C(/C=C\c1ccc([N+](=O)[O-])cc1)OCCCCOC(=O)/C=C/c1ccc([N+](=O)[O-])cc1
inactive: [4] 93 % of control | [5] 96 % of control | [6] 90 % of control | [7] 87 % of control

COc1ccc(C2CCCCCC2OS(C)(=O)=O)c(OC)c1OC (stereo not given)
inactive: [8] 108 % of control | [9] 119 % of control

Nc1cccc2c1-c1ccccc1/C2=N\O
inactive: [8] 97 % of control | [9] 105 % of control | [10] 103 % of control

c1ccc2c(c1)Nc1cc3ccccc3cc1O2
inactive: dose: 50.0 mg/kg/injection, schedule: Q01DX001 (ip), vehicle: carboxymethylcellulose (CMC) 101 % of control | [8] 92 % of control | [9] 97 % of control | [10] 90 % of control

O=S1(=O)CCCCC1c1ccccc1 (stereo not given)
inactive: [5] 87 % of control | [11] 98 % of control | dose: 100.0 mg/kg/injection, schedule: Q04DX003 (ip), vehicle: saline 122 % of control | [6] 95 % of control | dose: 200.0 mg/kg/injection, schedule: Q01DX009 (ip), vehicle: saline 87 % of control | dose: 200.0 mg/kg/injection, schedule: Q04DX003 (ip), vehicle: saline 97 % of control | [7] 93 % of control | dose: 400.0 mg/kg/injection, schedule: Q04DX003 (ip), vehicle: saline 98 % of control

CCN(CC)c1ccc(C(=O)OC(C)CNCC(C)CCCC(C)C)cc1 (stereo not given)
inactive: dose: 75.0 mg/kg/injection, schedule: Q01DX001 (ip), vehicle: carboxymethylcellulose (CMC) 90 % of control | dose: 150.0 mg/kg/injection, schedule: Q01DX001 (ip), vehicle: carboxymethylcellulose (CMC) 94 % of control | dose: 300.0 mg/kg/injection, schedule: Q01DX001 (ip), vehicle: carboxymethylcellulose (CMC) 93 % of control

C1=CC=CN(c2ccccc2)C=C1
inactive: [12] 108 % of control | [13] 104 % of control

C=CC1(O)CC2CCC1C2 (stereo not given)
inactive: [14] 101 % of control | [15] 96 % of control

Cc1cc(N(CCCl)CCCl)ccc1C=Nc1ccc(-c2nc(Cc3ccccc3)sc2C)cc1
inactive: [8] 117 % of control | [9] 98 % of control | [10] 110 % of control

O=C(O)CCCN1C(=O)C2C3CCC(C3)C2C1=O (stereo not given)
inactive: [1] 103 % of control | [2] 98 % of control | [3] 107 % of control

O=C1NC(=O)C2(CCN(CCCSc3ccc(F)cc3)CC2)C(=O)N1
inactive: [16] 98 % of control | [17] 98 % of control | [18] 94 % of control

C=CCC1(CCC)C(=O)NC(=O)NC1=O
inactive: [19] 100 % of control | [20] 112 % of control | [11] 100 % of control | [16] 92 % of control

CC(=O)c1ccc(-c2ccccc2)cc1
inactive: [14] 91 % of control | [15] 93 % of control | dose: 400.0 mg/kg/injection, schedule: Q01DX009 (ip), vehicle: saline with Tween-80 96 % of control

COc1ccc(NC(=O)Oc2ccc(Br)cc2Br)c(OC)c1
inactive: [12] 108 % of control | [13] 113 % of control

O=C(NCCBr)c1ccc(CCl)cc1
inactive: dose: 75.0 mg/kg/injection, schedule: Q04DX003 (ip), vehicle: Klucel (hydroxypropylcellulose) (HPC) 102 % of control | [21] 104 % of control | dose: 150.0 mg/kg/injection, schedule: Q04DX003 (ip), vehicle: Klucel (hydroxypropylcellulose) (HPC) 96 % of control | [22] 95 % of control | dose: 300.0 mg/kg/injection, schedule: Q04DX003 (ip), vehicle: Klucel (hydroxypropylcellulose) (HPC) 97 % of control | [23] 103 % of control

NNC(=O)c1cccnc1
inactive: dose: 12.5 mg/kg/injection, schedule: Q01DX009 (ip), vehicle: saline 94 % of control | dose: 25.0 mg/kg/injection, schedule: Q01DX001 (ip), vehicle: saline 100 % of control | [19] 104 % of control | [4] 105 % of control | [20] 98 % of control | [5] 102 % of control and 104 % of control | [11] 105 % of control

CC[N+](C)(CC)CCSC(=O)Nc1ccc(Cc2ccc(NC(=O)SCC[N+](C)(CC)CC)cc2)cc1
inactive: dose: 10.0 mg/kg/injection, schedule: Q04DX003 (ip), vehicle: Klucel (hydroxypropylcellulose) (HPC) 96 % of control | dose: 12.5 mg/kg/injection, schedule: Q01DX009 (ip), vehicle: Klucel (hydroxypropylcellulose) (HPC) 103 % of control | dose: 20.0 mg/kg/injection, schedule: Q04DX003 (ip), vehicle: Klucel (hydroxypropylcellulose) (HPC) 96 % of control

COc1ccc(CNc2ccccc2C(=O)O)cc1OC
inactive: [5] 91 % of control | [7] 103 % of control

COc1cc(NC(=O)CC(C)=O)cc2c(C)cc(=O)[nH]c12
inactive: [21] 104 % of control | [16] 102 % of control | [22] 96 % of control | [17] 107 % of control | [23] 102 % of control | [18] 102 % of control
